Reference: patent publication US12467917B2, “Reconstructing human early embryogenesis in vitro with pluripotent stem cells” (California Institute of Technology, priority 2021, dated 2025)

How the values were obtained:
Format in all cases: cell-based, human
hEPSCs = assay: Screening of growth factors and inhibitors in hEPSC 3D culture; settings: grown for 5 days without the named substance (condition 2 / condition 3)
Method: Next, various growth factors, cytokines, and small molecules were screened at widely adopted concentrations, to identify conditions facilitating cavity and early-lineage formation in these structures (FIG. 7A-FIG. 7E). […] Additionally, the cells were pulsed with the ALK5 kinase inhibitor A83-01 (2 μM) to promote TE differentiation for the first 48h of 3D culture, and this inhibitor was removed after this time to avoid a complete loss in pluripotency. Concomitantly, the concentration of FGF2 was decreased by half (20 ng/ml) for the same purpose. Using this optimized condition, the emergence of cavitated structures was observed, 3 to 4 days after cell seeding (FIG. 1D).
Post incubation on gelatin plates, cells were counted using a haemocytometer and a total of 7200 hEPSCs was added to 1 mL of media composed of 50% IVF media (Continuous Single Culture-NX Complete (CSCM-NXC)) (90168, FUJIFILM), 25% hEP media, and 25% hTS media. This media was also supplemented with CHIR99021 (2 μM), Y27632 (5 μM), BMP4 (20 ng/mL), FGF2 (40 ng/mL), and A83-01 (2 μM). Cell suspensions were added dropwise to the Aggrewells. All wells without cells were filled with 1 mL PBS to humidify the local atmosphere to minimize evaporation. The AggreWell plate (24-well, 1200 Aggrewell format) was then centrifuged for 3 min at 100 g, and placed at 37° C. under hypoxic conditions (5% CO2 and 5% O2). […]

hEPSC aggregates = assay: PLC inhibition in hEPSC 3D cultures: immunofluorescence quantification of nuclear GATA3 and apical PARD6; settings: hEPSC 3D cultures treated with 2 μM and 3 μM, vs control without inhibitor
Method: The PLC-Protein Kinase C (PKC) pathway controls cellular polarisation at early stages of mouse embryo development. hEPSC 3D cultures were treated with 2 μM and 3 μM of the PLC inhibitor, U73122. […] To confirm the relationship between polarisation and outer cell commitment, siRNA transfection was used to knockdown (KD) PLCB1 in order to deplete PLC activity in cells during 3D aggregation (FIG. 2F). The depletion of PLC activity was confirmed by qRT-PCR to confirm that RNAi depletion of PLCB1 was effective (FIG. 8C).
Post incubation on gelatin plates, cells were counted using a haemocytometer and a total of 7200 hEPSCs was added to 1 mL of media composed of 50% IVF media (Continuous Single Culture-NX Complete (CSCM-NXC)) (90168, FUJIFILM), 25% hEP media, and 25% hTS media. This media was also supplemented with CHIR99021 (2 μM), Y27632 (5 μM), BMP4 (20 ng/mL), FGF2 (40 ng/mL), and A83-01 (2 μM). […]
Fluorescence images were acquired with an inverted Leica SP8 confocal microscope (Leica Microsystems), using a Leica Fluotar VISIR 0.95 NA 25× objective. […] Digital quantifications and immunofluorescence signal intensity graphs were obtained using Fiji software.
Apical enrichment analysis: F-actin and PARD6 polarisation were measured in a single focal plane, by taking the middle plane of the aggregate. […] The apical/basal signal intensity ratio was calculated as: I (apical)/I (basal). […]

hEP-structures = assay: Frequency of cavitated structures in WNT3A-supplemented 3D culture; settings: day 6; WNT3A at 25 or 50 ng/mL added to culture media; vs control
Method: Post incubation on gelatin plates, cells were counted using a haemocytometer and a total of 7200 hEPSCs was added to 1 mL of media composed of 50% IVF media (Continuous Single Culture-NX Complete (CSCM-NXC)) (90168, FUJIFILM), 25% hEP media, and 25% hTS media. This media was also supplemented with CHIR99021 (2 μM), Y27632 (5 μM), BMP4 (20 ng/mL), FGF2 (40 ng/mL), and A83-01 (2 μM). Cell suspensions were added dropwise to the Aggrewells. All wells without cells were filled with 1 mL PBS to humidify the local atmosphere to minimize evaporation. The AggreWell plate (24-well, 1200 Aggrewell format) was then centrifuged for 3 min at 100 g, and placed at 37° C. under hypoxic conditions (5% CO2 and 5% O2). After 48h, media was removed from wells and replaced with fresh culture media as described above, although FGF2 concentration was lowered to 20 ng/ml and A83-01 was omitted. Cells were left to grow for an additional 48-72h until proper morphology was observed, at which point structures were fixed for immunostaining or transferred to IVC media (see below) for mimicking development beyond implantation stages.
Following completion of any given aggregation experiment (from day 4 to 6), all cystic structures clearly displaying a cavity were included in further analyses. Non-cavitated structures were excluded from downstream analyses.

Molecule: C[C@@H](N)[C@H]1CC[C@H](C(=O)Nc2ccncc2)CC1.Cl.Cl [Y-27632, trans-4-[(R)-1-Aminoethyl]-N-4-pyridinylcyclohexanecarboxamide dihydrochloride]
- cell survival in media without the substance (hEPSCs): failure of cell survival

Molecule: Cc1c[nH]c(-c2cnc(NCCNc3ccc(C#N)cn3)nc2-c2ccc(Cl)cc2Cl)n1 [CHIR99021]
- cell survival in media without the substance (hEPSCs): failure of cell survival

Molecule: COc1ccc2c(c1)CC[C@@H]1[C@@H]2CC[C@]2(C)[C@@H](NCCCCCCN3C(=O)C=CC3=O)CC[C@@H]12 [U73122]
- nuclear GATA3 signal intensity (hEPSC aggregates; normalized to DAPI): reduction
- apical enrichment of PARD6 (hEPSC aggregates): decrease

B1: WNT3A: Wnt3a recombinant protein, WNT signaling pathway activator added to the culture media (protein, UniProt P56704 19-352, looked up)
Protein Wnt-3a: SYPIWWSLAVGPQYSSLGSQPILCASIPGLVPKQLRFCRNYVEIMPSVAEGIKIGIQECQHQFRGRRWNCTTVHDSLAIFGPVLDKATRESAFVHAIASAGVAFAVTRSCAEGTAAICGCSSRHQGSPGKGWKWGGCSEDIEFGGMVSREFADARENRPDARSAMNRHNNEAGRQAIASHMHLKCKCHGLSGSCEVKTCWWSQPDFRAIGDFLKDKYDSASEMVVEKHRESRGWVETLRPRYTYFKVPTERDLVYYEASPNFCEPNPETGSFGTRDRTCNVSSHGIDGCDLLCCGRGHNARAERRREKCRCVFHWCCYVSCQECTRVYDVHTCK
- yield (frequency) of cavitated structures (hEP-structures): did not make any significant difference
